Experimental data published in patent US20070116781A1, “Hydrogen Cyanamide Pesticide Formulations” (priority 2005, published 2007).

Key:
[1] = tested on: Dorylaimida nematodes; assay: Effect on beneficial nematodes in covered pots of silt loam; type: in vivo
Description: In this study, the soil was naturally infested with four species of nematodes, two of which were deleterious and two beneficial, and observations were made of both the nematode survival and the growth of the soybean plants.
Stock solutions of hydrogen cyanamide at 1.0% by weight and propionic acid at 5.0% by weight, both in water, were prepared, the hydrogen cyanamide from a phosphate-buffered 50% aqueous solution. Planting pots measuring 10 cm in diameter, each containing 1 kg of soil, were used. The soil was silt loam from a cotton field, pH 6.2, CEC<10 meq/100 g soil, organic matter<1.0%. The treatment chemicals were combined in various dilutions such that 100 mL of the combined dilutions contained the desired amount of each chemical for each test. The combined dilutions were then applied to the soil surface in each pot, at 100 mL of combined dilution per pot. The dilutions were selected to achieve target application rates expressed in milligrams of the treatment chemical per kilogram of soil, with 1 milligram of treatment chemical per kilogram of soil being approximately equal to 2 kilograms of the chemical per hectare of soil or 2 pounds of the chemical per acre of soil.
Immediately after the treatment chemicals were applied, each pot was covered by a thick (1.5 mil), clear, low-density polyethylene bag. After twelve days, the bags were removed and soil samples were taken from each pot for nematological analysis by the salad bowl technique of Rodriguez-Kabana, R., and M. H. Pope, Nematropica, 11: 175-186 (1981). The results of these analyses are listed in Table I as pre-plant test results. The results for the two deleterious nematodes are also shown as plots of the number of nematodes vs. the hydrogen cyanamide application rate in FIGS. 1 and 2.
After the polyethylene bags were removed, each pot was planted with Hutcheson soybean seeds at 5 seeds per pot, and the seeds were allowed to germinate and the plants to grow for 45 days. The resulting plants were then removed from the pots, the root systems were washed, and the number of plants in each pot was determined. The weights of both fresh shoots and roots were also determined as well as the shoot height and the relative health of the root system, using a subjective index. Soil samples were also collected, and the soil and roots were incubated to determine nematode populations. Treatments were arranged in randomized complete block design with seven replications per treatment, and statistical evaluation of the data was performed with analyses of variance (ANOVA) and standard regression procedures. Fischer's Least Significant Difference at p 0.05 was calculated when appropriate. The results of these tests are listed as final test results in Tables II, III, and IV, with nematode populations in the soil listed in Table II, the nematode populations in the root systems in Table III, and the plant and root parameters of the soybean shoots in Table IV.

[2] = tested on: yellow nutsedge; assay: Herbicidal activity, cyanamide and propionic acid, pre-emergence, covered pots; type: in vivo, Cyperus esculentus
Description: (§1) The weeds used in these tests were grown from a standard weed seed pack of common annual and perennial weeds representing an extreme weed situation. The weeds included yellow nutsedge (Cyperus esculentus), crabgrass (Digitaria sanguinalis), pigweed (Amaranthus spp.), momingglory (Ipomoea spp.), sicklepod (Senna obtusifolia) and other annual weeds. Observations of the effects on the weed population as a whole were made, and individual observations were made for yellow nutsedge, crabgrass, and sicklepod. Stock solutions of hydrogen cyanamide at 1.25% by weight and propionic acid at 5.0% by weight, both in water, were prepared, the hydrogen cyanamide from a phosphate-buffered 50% aqueous solution. […] Data analyses were performed in the same manner as Example 1. The results expressed in weeds per pot are listed in Table V for all weeds, Table VI for yellow nutsedge, Table VII for crabgrass, and Table VIII for sicklepod, all at various application rates for both hydrogen cyanamide and propionic acid.

[3] = tested on: crabgrass; assay: as above; type: in vivo, Digitaria sanguinalis
Description: as §1

[4] = tested on: sicklepod; assay: as above; type: in vivo, Senna obtusifolia
Description: as §1

[5] = tested on: sicklepod; assay: Herbicidal activity, cyanamide and citric acid, pre-emergence, covered pots; type: in vivo, Senna obtusifolia
Description: (§2) The weeds used in these tests were grown from a standard weed seed pack of common annual and perennial weeds representing an extreme weed situation. The weeds included crabgrass (Digitaria sanguinalis), yellow nutsedge (Cyperus esculentus), […] (Ipomoea spp.), pigweed (Amaranthus spp.), and other annual weeds. Observations of the effects on the weed population as a whole were made, and individual observations were made for crabgrass, yellow nutsedge, sicklepod, morningglory, and pigweed. Stock solutions of hydrogen cyanamide at 1.25% by weight and citric acid at 5.0% by weight, both in water, were prepared, the hydrogen cyanamide from a phosphate-buffered 50% aqueous solution. […] Data analyses were performed in the same manner as Example 1. The results expressed in weeds per pot are listed in Table XIV for all weeds, Table XV for crabgrass, Table XVI for yellow nutsedge, Table XVII for sicklepod, Table XVIII for morningglory, and Table XIX for pigweed, all at various application rates for hydrogen cyanamide, with and without citric acid.

[6] = tested on: morningglory; assay: as above; type: in vivo, Ipomoea spp.
Description: as §2

[7] = 8 d after treatment, cyanamide 75 mg/kg soil
[8] = 8 d after treatment, cyanamide 150 mg/kg soil
[9] = 14 d after treatment, cyanamide 75 mg/kg soil
[10] = 14 d after treatment, cyanamide 150 mg/kg soil
[11] = 20 d after treatment, cyanamide 75 mg/kg soil
[12] = 20 d after treatment, cyanamide 150 mg/kg soil
[13] = 27 d after treatment, cyanamide 75 mg/kg soil
[14] = 27 d after treatment, cyanamide 150 mg/kg soil
[15] = 13 d after treatment, cyanamide 50 mg/kg soil
[16] = 13 d after treatment, cyanamide 100 mg/kg soil
[17] = 13 d after treatment, cyanamide 150 mg/kg soil
[18] = 13 d after treatment, cyanamide 200 mg/kg soil
[19] = 13 d after treatment, cyanamide 250 mg/kg soil
[20] = 19 d after treatment, cyanamide 50 mg/kg soil
[21] = 19 d after treatment, cyanamide 100 mg/kg soil
[22] = 19 d after treatment, cyanamide 150 mg/kg soil
[23] = 19 d after treatment, cyanamide 200 mg/kg soil
[24] = 19 d after treatment, cyanamide 250 mg/kg soil
[25] = 26 d after treatment, cyanamide 50 mg/kg soil
[26] = 26 d after treatment, cyanamide 100 mg/kg soil
[27] = 26 d after treatment, cyanamide 150 mg/kg soil
[28] = 26 d after treatment, cyanamide 200 mg/kg soil
[29] = 26 d after treatment, cyanamide 250 mg/kg soil

N#CN [Cyanamide, hydrogen cyanamide]
Surviving Nematodes: Dorylaimida ([1]; 12 d after treatment, pre-plant, cyanamide 20 mg/kg soil): 24 per 100 mL of soil
Surviving Nematodes: Dorylaimida ([1]; 12 d after treatment, pre-plant, cyanamide 40 mg/kg soil): 20 per 100 mL of soil
Surviving Nematodes: Dorylaimida ([1]; 12 d after treatment, pre-plant, cyanamide 60 mg/kg soil): 5 per 100 mL of soil
Surviving Nematodes: Dorylaimida ([1]; 12 d after treatment, pre-plant, cyanamide 80 mg/kg soil): 6 per 100 mL of soil
Surviving Nematodes: Dorylaimida ([1]; 12 d after treatment, pre-plant, cyanamide 120 mg/kg soil): 0 per 100 mL of soil
Surviving Nematodes: Dorylaimida ([1]; 57 d after treatment, 45 d after planting, cyanamide 20 mg/kg soil): 9 per 100 mL of soil
Surviving Nematodes: Dorylaimida ([1]; 57 d after treatment, 45 d after planting, cyanamide 40 mg/kg soil): 8 per 100 mL of soil
Surviving Nematodes: Dorylaimida ([1]; 57 d after treatment, 45 d after planting, cyanamide 60 mg/kg soil): 4 per 100 mL of soil
Surviving Nematodes: Dorylaimida ([1]; 57 d after treatment, 45 d after planting, cyanamide 80 mg/kg soil): 5 per 100 mL of soil
Surviving Nematodes: Dorylaimida ([1]; 57 d after treatment, 45 d after planting, cyanamide 120 mg/kg soil): 0 per 100 mL of soil
Weeds Per Pot: Yellow Nutsedge [2, 7]: 1.4
Weeds Per Pot: Yellow Nutsedge [2, 8]: 0.1
Weeds Per Pot: Yellow Nutsedge [2, 9]: 3.6
Weeds Per Pot: Yellow Nutsedge [2, 10]: 2.4
Weeds Per Pot: Yellow Nutsedge [2, 11]: 4.6
Weeds Per Pot: Yellow Nutsedge [2, 12]: 3.4
Weeds Per Pot: Yellow Nutsedge [2, 13]: 6.9
Weeds Per Pot: Yellow Nutsedge [2, 14]: 6.1
Weeds Per Pot: Crabgrass [3, 7]: 0
Weeds Per Pot: Crabgrass [3, 8]: 0
Weeds Per Pot: Crabgrass [3, 9]: 3.3
Weeds Per Pot: Crabgrass [3, 10]: 0
Weeds Per Pot: Crabgrass [3, 11]: 8.6
Weeds Per Pot: Crabgrass [3, 12]: 3.7
Weeds Per Pot: Crabgrass [3, 13]: 7.7
Weeds Per Pot: Crabgrass [3, 14]: 4
Weeds Per Pot: Sicklepod [4, 7]: 1
Weeds Per Pot: Sicklepod [4, 8]: 0.4
Weeds Per Pot: Sicklepod [4, 9]: 1.9
Weeds Per Pot: Sicklepod [4, 10]: 2.1
Weeds Per Pot: Sicklepod [4, 11]: 2
Weeds Per Pot: Sicklepod [4, 12]: 2.7
Weeds Per Pot: Sicklepod [4, 13]: 2.4
Weeds Per Pot: Sicklepod [4, 14]: 3.1
Weeds Per Pot: Sicklepod [5, 15]: 1.3
Weeds Per Pot: Sicklepod [5, 16]: 0.9
Weeds Per Pot: Sicklepod [5, 17]: 0.3
Weeds Per Pot: Sicklepod [5, 18]: 0
Weeds Per Pot: Sicklepod [5, 19]: 0
Weeds Per Pot: Sicklepod [5, 20]: 1.7
Weeds Per Pot: Sicklepod [5, 21]: 0.7
Weeds Per Pot: Sicklepod [5, 22]: 0.4
Weeds Per Pot: Sicklepod [5, 23]: 0.3
Weeds Per Pot: Sicklepod [5, 24]: 0
Weeds Per Pot: Sicklepod [5, 25]: 1.6
Weeds Per Pot: Sicklepod [5, 26]: 0.7
Weeds Per Pot: Sicklepod [5, 27]: 0.4
Weeds Per Pot: Sicklepod [5, 28]: 0.3
Weeds Per Pot: Sicklepod [5, 29]: 0.1
Weeds Per Pot: Morningglory [6, 15]: 0
Weeds Per Pot: Morningglory [6, 16]: 0
Weeds Per Pot: Morningglory [6, 17]: 0
Weeds Per Pot: Morningglory [6, 18]: 0
Weeds Per Pot: Morningglory [6, 19]: 0
Weeds Per Pot: Morningglory [6, 20]: 0
Weeds Per Pot: Morningglory [6, 21]: 0
Weeds Per Pot: Morningglory [6, 22]: 0
Weeds Per Pot: Morningglory [6, 23]: 0
Weeds Per Pot: Morningglory [6, 24]: 0
Weeds Per Pot: Morningglory [6, 25]: 1.6
Weeds Per Pot: Morningglory [6, 26]: 0.7
Weeds Per Pot: Morningglory [6, 27]: 0.4
Weeds Per Pot: Morningglory [6, 28]: 0.3
Weeds Per Pot: Morningglory [6, 29]: 0.1
